≈ marks a conversion by molar mass, not a printed value.
Columns and labels:
Enterococcus faecalis [1] = assay: Antibacterial activity against Enterococcus faecalis ATCC 29212 assessed as bacterial growth inhibition at 50 uM incubated for 24 hrs by CLSI protocol based broth microdilution assay relative to control; assay type: functional
[2] = biological target: DNA gyrase (Staphylococcus aureus) (UniProt P0A0K8+P20831); assay: Inhibition of Staphylococcus aureus DNA gyrase assessed as residual activity at 1 uM using biotinylated oligonucleotide as substrate incubated for 30 mins in presence of ATP by fluorescence-based microplate reader assay relative to control; assay type: protein-complex assay
Chain of DNA gyrase (Staphylococcus aureus) (P0A0K8 2-644 limits assumed): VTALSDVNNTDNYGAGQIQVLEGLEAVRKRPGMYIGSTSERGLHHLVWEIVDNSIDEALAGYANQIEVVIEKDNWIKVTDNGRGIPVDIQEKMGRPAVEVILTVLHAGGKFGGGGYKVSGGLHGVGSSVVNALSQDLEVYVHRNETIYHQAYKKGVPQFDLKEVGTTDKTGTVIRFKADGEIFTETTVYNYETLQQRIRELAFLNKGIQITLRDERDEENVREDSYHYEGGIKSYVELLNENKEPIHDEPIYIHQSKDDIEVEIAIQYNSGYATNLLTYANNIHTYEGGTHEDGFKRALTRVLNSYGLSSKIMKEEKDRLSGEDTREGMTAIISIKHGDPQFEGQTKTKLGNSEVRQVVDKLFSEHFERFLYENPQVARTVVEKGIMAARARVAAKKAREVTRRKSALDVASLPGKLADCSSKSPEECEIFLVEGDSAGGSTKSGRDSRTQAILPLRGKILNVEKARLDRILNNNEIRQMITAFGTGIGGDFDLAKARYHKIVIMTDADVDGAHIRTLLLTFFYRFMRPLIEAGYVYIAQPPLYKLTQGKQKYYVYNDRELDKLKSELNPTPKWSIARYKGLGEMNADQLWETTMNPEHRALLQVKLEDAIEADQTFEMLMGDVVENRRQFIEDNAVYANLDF
Chain of DNA gyrase (Staphylococcus aureus) (P20831 whole entry partner): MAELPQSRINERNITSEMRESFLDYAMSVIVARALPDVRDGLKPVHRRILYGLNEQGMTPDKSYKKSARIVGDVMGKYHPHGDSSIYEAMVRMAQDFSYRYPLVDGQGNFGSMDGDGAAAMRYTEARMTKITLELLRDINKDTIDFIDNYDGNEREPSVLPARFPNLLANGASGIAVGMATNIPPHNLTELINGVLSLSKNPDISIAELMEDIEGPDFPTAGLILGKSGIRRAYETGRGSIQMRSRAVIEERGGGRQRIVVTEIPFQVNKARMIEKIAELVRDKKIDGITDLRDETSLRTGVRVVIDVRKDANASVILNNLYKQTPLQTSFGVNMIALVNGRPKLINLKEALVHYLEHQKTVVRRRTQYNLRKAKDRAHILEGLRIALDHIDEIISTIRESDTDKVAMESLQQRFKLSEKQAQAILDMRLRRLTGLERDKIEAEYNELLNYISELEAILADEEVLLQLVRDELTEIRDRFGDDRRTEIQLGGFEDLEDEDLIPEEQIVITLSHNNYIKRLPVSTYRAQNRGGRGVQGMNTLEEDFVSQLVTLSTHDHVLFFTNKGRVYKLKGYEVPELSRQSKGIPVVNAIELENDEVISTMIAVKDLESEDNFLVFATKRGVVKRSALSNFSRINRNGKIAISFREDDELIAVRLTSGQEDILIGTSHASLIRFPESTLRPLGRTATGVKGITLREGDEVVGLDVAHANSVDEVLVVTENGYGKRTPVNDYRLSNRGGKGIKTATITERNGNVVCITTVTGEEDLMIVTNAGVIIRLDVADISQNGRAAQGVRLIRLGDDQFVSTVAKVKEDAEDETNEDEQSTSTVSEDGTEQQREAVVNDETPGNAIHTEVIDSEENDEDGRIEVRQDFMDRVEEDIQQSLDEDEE

[3] = Inhibition of Escherichia coli DNA topoisomerase 4 assessed as residual activity at 1 uM using biotinylated oligonucleotide as substrate incubated for 30 mins in presence of ATP by fluorescence-based microplate reader assay relative to control
Escherichia coli [4] = assay: Antibacterial activity against Escherichia coli MG1655 assessed as minimum inhibitory concentration required for >=90% inhibition of bacterial growth in presence of phenylalanine-arginine beta-naphthylamide by CLSI protocol based broth microdilution assay; assay type: functional
Klebsiella pneumoniae [5] = assay: Antibacterial activity against wild type Klebsiella pneumoniae ATCC 10031 assessed as minimum inhibitory concentration required for >=90% inhibition of bacterial growth in presence of 10 ug/ml phenylalanine-arginine beta-naphthamide; assay type: functional
Escherichia coli [6] = assay: Antibacterial activity against Escherichia coli MG1655 harboring […]/D87N mutant assessed as minimum inhibitory concentration required for >=90% inhibition of bacterial growth in presence of 50 ug/ml phenylalanine-arginine beta-naphthylamide; assay type: functional
Klebsiella pneumoniae [7] = assay: Antibacterial activity against wild type Klebsiella pneumoniae ATCC 10031 harboring GyrA S83F mutant assessed as minimum inhibitory concentration required for >=90% inhibition of bacterial growth in presence of 10 ug/ml phenylalanine-arginine beta-naphthamide; assay type: functional
Staphylococcus aureus [8] = assay: Antibacterial activity against […] Staphylococcus aureus ATCC 25923 assessed as minimum inhibitory concentration required for >=90% inhibition of bacterial growth by CLSI protocol based broth microdilution assay; assay type: functional
[9] = biological target: Topoisomerase IV (Staphylococcus aureus) (UniProt P0C1U9+P0C1S7); assay: Inhibition of Staphylococcus aureus DNA topoisomerase 4 assessed as residual activity at 1 uM using biotinylated oligonucleotide as substrate incubated for 30 mins in presence of ATP by fluorescence-based microplate reader assay relative to control; assay type: protein-complex assay
Shigella flexneri = assay: Antibacterial activity against Shigella flexneri HNCMB 20018 assessed as minimum inhibitory concentration required for >=90% inhibition of bacterial growth in presence of phenylalanine-arginine beta-naphthylamide by CLSI protocol based broth microdilution assay; assay type: functional
Enterococcus faecalis [10] = assay: Antibacterial activity against Enterococcus faecalis ATCC 29212 assessed as minimum inhibitory concentration required for >=90% inhibition of bacterial growth by CLSI protocol based broth microdilution assay; assay type: functional
Escherichia coli [11] = assay: Antibacterial activity against Escherichia coli MG1655 harboring GyrB R136C mutant assessed as minimum inhibitory concentration required for >=90% inhibition of bacterial growth in presence of 50 ug/ml phenylalanine-arginine beta-naphthylamide; assay type: functional
Klebsiella aerogenes = assay: Antibacterial activity against Enterobacter aerogenes ATCC 13408 assessed as bacterial growth inhibition at 50 uM incubated for 24 hrs by CLSI protocol based broth microdilution assay relative to control; assay type: functional
Escherichia coli [12] = assay: Antibacterial activity against Escherichia coli ATCC 25922 assessed as minimum inhibitory concentration required for >=90% inhibition of bacterial growth by CLSI protocol based broth microdilution assay; assay type: functional
Escherichia coli [13] = assay: Antibacterial activity against wild type Escherichia coli MG1655 assessed as minimum inhibitory concentration required for >=90% inhibition of bacterial growth in presence of 50 ug/ml phenylalanine-arginine beta-naphthylamide; assay type: functional
Pseudomonas aeruginosa [14] = assay: Antibacterial activity against Pseudomonas aeruginosa ATCC 27853 assessed as bacterial growth inhibition at 50 uM incubated for 24 hrs by CLSI protocol based broth microdilution assay relative to control; assay type: functional
Escherichia coli [15] = assay: Antibacterial activity against efflux pump d effect ive Escherichia coli JW5503 harbouring tolC mutant assessed as bacterial growth inhibition at 50 uM incubated for 24 hrs by CLSI protocol based broth microdilution assay relative to control; assay type: functional
Klebsiella pneumoniae [16] = assay: Antibacterial activity against wild type Klebsiella pneumoniae ATCC 10031 harboring GyrA S83L mutant assessed as minimum inhibitory concentration required for >=90% inhibition of bacterial growth in presence of 10 ug/ml phenylalanine-arginine beta-naphthamide; assay type: functional
Enterococcus faecium = assay: Antibacterial activity against Enterococcus faecium ATCC 35667 assessed as bacterial growth inhibition at 50 uM incubated for 24 hrs by CLSI protocol based broth microdilution assay relative to control; assay type: functional
Escherichia coli [17] = assay: Antibacterial activity against Escherichia coli MG1655 harboring […]/D87N and ParC S80I/E84G mutants assessed as minimum inhibitory concentration required for >=90% inhibition of bacterial growth in presence of 50 ug/ml phenylalanine-arginine beta-naphthylamide; assay type: functional
Klebsiella pneumoniae [18] = assay: Antibacterial activity against Klebsiella pneumoniae ATCC 700603 assessed as bacterial growth inhibition at 50 uM incubated for 24 hrs by CLSI protocol based broth microdilution assay relative to control; assay type: functional
Escherichia coli [19] = assay: Antibacterial activity against Escherichia coli ATCC 25922 assessed as bacterial growth inhibition at 50 uM incubated for 24 hrs by CLSI protocol based broth microdilution assay relative to control; assay type: functional
Acinetobacter baumannii = assay: Antibacterial activity against Acinetobacter baumannii ATCC 19606 assessed as bacterial growth inhibition at 50 uM incubated for 24 hrs by CLSI protocol based broth microdilution assay relative to control; assay type: functional; conditions: ATCC 19606 = CIP 70.34 = JCM 6841
Salmonella enterica = assay: Antibacterial activity against Salmonella enterica LT2 assessed as minimum inhibitory concentration required for >=90% inhibition of bacterial growth in presence of phenylalanine-arginine beta-naphthylamide by CLSI protocol based broth microdilution assay; assay type: functional
DNA gyrase [20] = biological target: T1, DNA gyrase (Escherichia coli, UniProt P0AES4+P0AES6); assay: Inhibition of Escherichia coli DNA gyrase assessed as conversion of NADH to NAD+ by ATPase assay; assay type: protein-complex assay
Pseudomonas aeruginosa [21] = assay: Antibacterial activity against Pseudomonas aeruginosa ATCC 27853 assessed as minimum inhibitory concentration required for >=90% inhibition of bacterial growth in presence of phenylalanine-arginine beta-naphthylamide by CLSI protocol based broth microdilution assay; assay type: functional
DNA gyrase [22] = biological target: T1, DNA gyrase; assay: Inhibition of Escherichia coli DNA gyrase using biotinylated oligonucleotide as substrate incubated for 30 mins in presence of ATP by fluorescence-based microplate reader assay; assay type: protein-complex assay
Klebsiella pneumoniae [23] = assay: Antibacterial activity against wild type Klebsiella pneumoniae ATCC 10031 harboring GyrA S83F/D87G mutant assessed as minimum inhibitory concentration required for >=90% inhibition of bacterial growth in presence of 10 ug/ml phenylalanine-arginine beta-naphthamide; assay type: functional
Staphylococcus aureus [24] = assay: Antibacterial activity against methicillin-resistant Staphylococcus aureus ATCC 43300 assessed as minimum inhibitory concentration required for >=90% inhibition of bacterial growth by CLSI protocol based broth microdilution assay; assay type: functional
Escherichia coli [25] = assay: Antibacterial activity against outer membrane impaired Escherichia coli JD17464 harboring lpxC mutant assessed as bacterial growth inhibition at 50 uM incubated for 24 hrs by CLSI protocol based broth microdilution assay relative to control; assay type: functional

Compound: CCn1cc(C(=O)O)c(=O)c2ccc(NC(=O)c3[nH]c(C)c(Cl)c3Cl)cc21
- inhibition at 50 µM (Enterococcus faecalis [1]): 99%
- Activity [2]: 90%
- Activity [3]: 92%
- MIC (Escherichia coli [4]): 2.5 µM
- MIC (Klebsiella pneumoniae [5]): 1.2 µM
- MIC (Escherichia coli [6]): 2.5 µM
- MIC (Klebsiella pneumoniae [7]): 1.2 µM
- MIC (Staphylococcus aureus [8]): 2.5 µM (≈ 1.02 µg/mL)
- Activity [9]: 100%
- MIC (Shigella flexneri): > 32 µM
- MIC (Enterococcus faecalis [10]): 1.56 µM (≈ 0.637 µg/mL)
- MIC (Escherichia coli [11]): 2.5 µM
- inhibition at 50 µM (Klebsiella aerogenes): 9%
- MIC (Escherichia coli [12]): > 32 µM
- MIC (Escherichia coli [13]): 2.5 µM
- inhibition at 50 µM (Pseudomonas aeruginosa [14]): -5%
- inhibition at 50 µM (Escherichia coli [15]): 54%
- MIC (Klebsiella pneumoniae [16]): 1.2 µM
- inhibition at 50 µM (Enterococcus faecium): 97%
- MIC (Escherichia coli [17]): 2.5 µM
- inhibition at 50 µM (Klebsiella pneumoniae [18]): 7%
- inhibition at 50 µM (Escherichia coli [19]): 11%
- inhibition at 50 µM (Acinetobacter baumannii): 2%
- MIC (Salmonella enterica): > 32 µM
- IC50 (DNA gyrase [20]): 1000 nM
- MIC (Pseudomonas aeruginosa [21]): > 32 µM
- IC50 (DNA gyrase [22]): 1400 nM
- MIC (Klebsiella pneumoniae [23]): 2.5 µM
- MIC (Staphylococcus aureus [24]): 2.5 µM (≈ 1.02 µg/mL)
- inhibition at 50 µM (Escherichia coli [25]): 11%

— ChEMBL document CHEMBL4665629, “An optimised series of substituted N-phenylpyrrolamides as DNA gyrase B inhibitors” (Eur J Med Chem, 2019)
